According to the supplement of paper PMC11061612:

Experiments:
[1] = tested on: BFTC-905 (Bladder Carcinoma); assay: Bliss excess, mean over the matrix (fraction); higher = more synergy
Summary of the method: (§1)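 Cell lines grown in DMEM/F12 or RPMI with 10% FBS were plated in 1536-well plates and held 24 hours at 37°C, 5% CO2 before 72 hours of exposure to two-drug dose matrices, with DMSO typically at 0.2%. CellTiter-Glo 2.0 luminescence gave viability, which was converted to inhibition. Vehicle wells were set to 0 and blank wells to 1. Combination Emax is the second-highest inhibition in the matrix, and Bliss excess is the observed combination effect minus the expected EA + EB − EA·EB, where EA and EB are the single-agent effects.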

[2] = tested on: BL-41 (Burkitt's Lymphoma); assay: as above
Summary of the method: as §1

[3] = tested on: CAMA-1 (Breast Carcinoma); assay: as above
Summary of the method: as §1

[4] = tested on: DND-41 (T-Lymphoblastic Leukemia); assay: as above
Summary of the method: as §1

ES1 (Ewing's Sarcoma) [5] = assay: as above
Summary of the method: as §1

ES8 (Ewing's Sarcoma) [6] = assay: as above
Summary of the method: as §1

[7] = tested on: GR-ST (B-Lymphoblastic Leukemia); assay: as above
Summary of the method: as §1

[8] = tested on: K-562 (Chronic Myelogenous Leukemia); assay: as above
Summary of the method: as §1

[9] = tested on: L-540 (Hodgkin's Lymphoma); assay: as above
Summary of the method: as §1

[10] = tested on: MKN28 (Gastric Carcinoma); assay: as above
Summary of the method: as §1

[11] = tested on: NCI-H1792 (Lung Adenocarcinoma); assay: as above
Summary of the method: as §1

NCI-H2818 (Mesothelioma) [12] = assay: as above
Summary of the method: as §1

[13] = tested on: SR (Other Blood Carcinomas); assay: as above
Summary of the method: as §1

[14] = tested on: SW1417 (Colorectal Carcinoma); assay: as above
Summary of the method: as §1

[15] = tested on: SW837 (Colorectal Carcinoma); assay: as above
Summary of the method: as §1

WIL2-NS (Non-Cancerous) [16] = assay: as above
Summary of the method: as §1

WM-115 (Melanoma) [17] = assay: as above
Summary of the method: as §1

[18] = tested on: BFTC-905 (Bladder Carcinoma); assay: combination Emax (second highest fraction inhibited in the dose matrix, 72 h); higher = more inhibition; extreme values may be limits of the assay
Summary of the method: as §1

[19] = tested on: BL-41 (Burkitt's Lymphoma); assay: as above
Summary of the method: as §1

[20] = tested on: CAMA-1 (Breast Carcinoma); assay: as above
Summary of the method: as §1

[21] = tested on: DND-41 (T-Lymphoblastic Leukemia); assay: as above
Summary of the method: as §1

ES1 (Ewing's Sarcoma) [22] = assay: as above
Summary of the method: as §1

ES8 (Ewing's Sarcoma) [23] = assay: as above
Summary of the method: as §1

[24] = tested on: GR-ST (B-Lymphoblastic Leukemia); assay: as above
Summary of the method: as §1

[25] = tested on: K-562 (Chronic Myelogenous Leukemia); assay: as above
Summary of the method: as §1

[26] = tested on: L-540 (Hodgkin's Lymphoma); assay: as above
Summary of the method: as §1

[27] = tested on: MKN28 (Gastric Carcinoma); assay: as above
Summary of the method: as §1

[28] = tested on: NCI-H1792 (Lung Adenocarcinoma); assay: as above
Summary of the method: as §1

NCI-H2818 (Mesothelioma) [29] = assay: as above
Summary of the method: as §1

[30] = tested on: SR (Other Blood Carcinomas); assay: as above
Summary of the method: as §1

[31] = tested on: SW1417 (Colorectal Carcinoma); assay: as above
Summary of the method: as §1

[32] = tested on: SW837 (Colorectal Carcinoma); assay: as above
Summary of the method: as §1

WIL2-NS (Non-Cancerous) [33] = assay: as above
Summary of the method: as §1

WM-115 (Melanoma) [34] = assay: as above
Summary of the method: as §1
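For Bliss excess, mean over the matrix in this document: after 72 h of two-drug dosing.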

Structure (SMILES)	Bliss excess [1]	Bliss excess [2]	Bliss excess [3]	Bliss excess [4]	Bliss excess (ES1 (Ewing's Sarcoma) [5])	Bliss excess (ES8 (Ewing's Sarcoma) [6])	Bliss excess [7]	Bliss excess [8]	Bliss excess [9]	Bliss excess [10]	Bliss excess [11]	Bliss excess (NCI-H2818 (Mesothelioma) [12])	Bliss excess [13]	Bliss excess [14]	Bliss excess [15]	Bliss excess (WIL2-NS (Non-Cancerous) [16])	Bliss excess (WM-115 (Melanoma) [17])	combination Emax [18]	combination Emax [19]	combination Emax [20]	combination Emax [21]	combination Emax (ES1 (Ewing's Sarcoma) [22])	combination Emax (ES8 (Ewing's Sarcoma) [23])	combination Emax [24]	combination Emax [25]	combination Emax [26]	combination Emax [27]	combination Emax [28]	combination Emax (NCI-H2818 (Mesothelioma) [29])	combination Emax [30]	combination Emax [31]	combination Emax [32]	combination Emax (WIL2-NS (Non-Cancerous) [33])	combination Emax (WM-115 (Melanoma) [34])
Cc1nc(-c2cn3c(n2)-c2ccc(-c4cnn(C(C)(C)C(N)=O)c4)cc2OCC3)n(C(C)C)n1 [Taselisib] + O=C(Nc1ccc2[nH]nc(-c3ccncc3)c2c1)[C@@H]1CCN(CC(=O)N2CCN(c3ccc(-c4ncccn4)cc3)CC2)C1 [SCH772984] (first compound max 10 µM, 7x7, partner max 5 µM)	0.172	0.0266	0.0216	0.14	0.0604	0.117	-0.0418	0.0488	0.0023	0.0966	0.0818	0.0096	0.177	0.0781	0.0556	0.106	0.0394	0.999	0.263	0.563	0.611	0.77	0.84	0.706	0.53	0.474	0.451	0.966	0.372	0.681	0.756	0.747	0.728	0.951
CN(CCO)CC[C@H](CSc1ccccc1)Nc1ccc(S(=O)(=O)NC(=O)c2ccc(N3CCC([C@@H](O)c4ccccc4-c4ccc(Cl)cc4)CC3)cc2)cc1S(=O)(=O)C(F)(F)F [AZD4320] + CC(=O)O[C@H]1C(=O)[C@@]2(C)[C@H]([C@H](OC(=O)c3ccccc3)[C@]3(O)C[C@H](OC(=O)[C@H](O)[C@@H](NC(=O)c4ccccc4)c4ccccc4)C(C)=C1C3(C)C)[C@]1(OC(C)=O)CO[C@@H]1C[C@@H]2O [Paclitaxel] (first compound max 1 µM, 7x7, partner max 3 µM)	0.0384	-0.0222	0.119	0.187	-0.0272	0.0317	-0.0651	-0.0181	0.0162	0.0942	0.0049	0.0844	0.0061	0.0037	0.0777	-0.0331	0.0811	0.989	1	0.843	1	0.984	1	0.839	0.981	0.974	0.738	0.986	0.745	1	0.864	0.878	0.942	0.851
N#Cc1cnc(Nc2cc(NC[C@H]3CNCCO3)c(C(F)(F)F)cn2)cn1 [SRA737] + CCc1c2c(nc3ccc(O)cc13)-c1cc3c(c(=O)n1C2)COC(=O)[C@]3(O)CC [SN-38] (first compound max 10 µM, 7x7, partner max 0.3 µM)	-0.028	-0.0272	0.0081	-0.0573	-0.0145	0.0054	-0.102	0.138	-0.0403	0.04	–	-0.0605	-0.0069	0.019	0.0267	-0.0262	-0.0968	0.912	1	0.393	0.974	1	1	0.836	0.977	0.938	0.552	0.889	0.337	1	0.803	0.805	0.982	0.421
C[C@@H](Nc1cc(F)cc(F)c1)c1cc(C(=O)N(C)C)cc2c(=O)cc(N3CCOCC3)oc12 [AZD8186] + C1CN(CCC1(C(=O)N[C@@H](CCO)C2=CC=C(C=C2)Cl)N)C3=NC=NC4=C3C=CN4 [AZD5363] (first compound max 10 µM, 7x7, partner max 10 µM)	-0.0098	-0.0264	0.0234	0.0141	0.0388	0.0216	-0.03	0.0402	-0.024	-0.0504	-0.0066	-0.017	-0.0412	-0.0038	-0.0386	0.0339	-0.0842	0.423	0.276	0.712	0.193	0.55	0.625	0.556	0.253	0.173	0.107	0.344	0.286	0.297	0.372	0.237	0.614	0.645
